73 compounds from ChEMBL document CHEMBL3507680, “University of Dundee, Gates Library screen for HepG2 cell viability” can be followed below.

The nature of the data set: Human HepG2 cell viability assay in 384 well format. Details: dose 125 nL, time 70.5 hour; cytotoxicity at 70.5 h: concentration not given beside the values. The class given is toxicity, cell-based. The note with it: HepG2 cells, read-out: Inhibition.

In the case of `CN(C)C(=O)CN1CCN(c2ccnc3c(F)ccc(F)c23)CC1`, the cytotoxicity at 70.5 h was -4.33%.
For the compound `Cc1cc(NC(=O)CNC(C)(C)c2ccc3c(c2)OCO3)on1`, the cytotoxicity at 70.5 h was -2.77%.
Regarding `NC(=O)c1cnc(NC2CCN(c3ccccn3)CC2)c(Cl)c1`, the cytotoxicity at 70.5 h was -6.48%.
With `Cc1cc(NC(=O)CNC(C)(C)c2ccc3c(c2)OCCO3)no1` the figure was 2.35%; with `CCOCCCC(=O)Nc1c(-c2ccc(F)cc2)ncn1C`, 0.124%; with `Cc1[nH]c(=O)sc1S(=O)(=O)N1CCCC1C(=O)NC1CC1` (stereo not drawn), -6.92%.
Next, `CCOCC(=O)Nc1cc(C)cnc1OC`: -3.98%; `CCOCCC(=O)Nc1cc(C)cnc1OC`: 14.7%.
On to `CCc1nc(CNC(=O)Nc2nc(COC)cs2)cs1`, for which the cytotoxicity at 70.5 h is -5.86%.
Next, `O=C(c1csc(-c2ccco2)n1)N1CCN2CCCCC2C1` (stereo not drawn): -4.49%; `Cc1ccc(OCCC(=O)NCCCN2CCCC2=O)c(C)c1`: 17.8%; `CCc1ncc2c(n1)CN(CC(O)COc1ccc(C#N)cc1)CC2` (stereo not drawn): -0.808%.
Next, `COc1cccc2[nH]cc(CCNC(=O)N3CCC[C@H]3CO)c12`: -1.09%; `COc1cc2c(nn1)CCN(CC(O)COc1ccc(C#N)cc1)C2` (stereo not drawn): 17.8%.
Next, `CCS(=O)(=O)NCCCNc1cc(N2CCCC2CO)ncn1` (stereo not drawn): -4.09%; `O=C(NCCNc1ncccn1)N1CCCC1c1ccc(F)cc1` (stereo not drawn): -9.37%.
As for `O=C(NCC(F)(F)F)C1CSCN1S(=O)(=O)c1cccc(F)c1` (stereo not drawn), the cytotoxicity at 70.5 h was -12%.
Next, `COCC(=O)NCCCn1nc2ccccn2c1=O`: -15.5%.
With `CC(C)c1nn(C)c(N2CCOCC2)c1CNCc1cscn1` the figure was -14.5%; with `COc1ccccc1C(=O)NCCCN1CCCC1C(=O)N(C)C` (stereo not drawn), -14.3%; with `O=C(CCc1ccccn1)N1CCCC(N2CCNC2=O)C1` (stereo not drawn), -14.8%.
For the compound `CN(C)C(=O)C1CCCN1CCCNC(=O)c1cccc2[nH]ncc12` (stereo not drawn), the cytotoxicity at 70.5 h is 12.2%.
Regarding `Cc1cc(C)n(CC2CCCN2C(=O)c2ccc3[nH]c(=O)[nH]c3c2)n1` (stereo not drawn), the cytotoxicity at 70.5 h is -17.4%.
In the case of `Cc1cc(C)n(CC2CCCN2C(=O)c2ccc3[nH]cnc3c2)n1` (stereo not drawn), the cytotoxicity at 70.5 h was -9%.
With `CSCC(CCO)NC(=O)Nc1ccc(C)cc1C` (stereo not drawn) the figure was -14.5%; with `CSCC(CCO)NC(=O)Nc1ccc(C)cc1Br` (stereo not drawn), 0.54%; with `Cc1cn(-c2ccccc2)nc1NS(=O)(=O)c1cc(C(=O)O)sc1C`, -18.9%.
Turning to `Cc1cn(-c2ccccc2)nc1NS(=O)(=O)c1cc(C(=O)O)ccc1Cl`, the cytotoxicity at 70.5 h is -9.13%.
For the compound `O=C(CCc1ccncc1)N1CCCC(N2CCNC2=O)C1` (stereo not drawn), the cytotoxicity at 70.5 h was -19.2%.
For the compound `Cc1cc(CNCc2c(C(C)C)nn(C)c2N2CCOCC2)no1`, the cytotoxicity at 70.5 h is -6.34%.
For the compound `Cc1ccc(CNCc2c(C(C)C)nn(C)c2N2CCOCC2)s1`, the cytotoxicity at 70.5 h is -19.6%.
Next, `Cc1nc(C)n(CC2CCCN2CC(=O)NCCC#N)n1` (stereo not drawn): -19.9%.
For `CCOCCC1(C(=O)N2CCCC(c3ncc[nH]3)C2)CCCC1` (stereo not drawn), the cytotoxicity at 70.5 h is -16.4%.
Turning to `Cc1nc(C)n(CC2CCCN2CC(=O)NCCc2ccsc2)n1` (stereo not drawn), the cytotoxicity at 70.5 h is 3.16%.
With `Cc1nc(C)n(CC2CCCN2CC(=O)NCCC2=CCCCC2)n1` (stereo not drawn) the figure was -9.96%.
Next, `Cc1cc(C)n(CC2CCCN2C(=O)c2ccc3c(c2)COC3)n1` (stereo not drawn): -13.3%; `Cc1nc(C)n(CC2CN(CCc3ccccc3Cl)CCO2)n1` (stereo not drawn): 39.5%.
Take `CC(C)n1cc(CN2CCCN(C(=O)c3ccoc3)CC2)cn1`: the cytotoxicity at 70.5 h came to 27.6%.
With `Cc1ccc(OCCCC(=O)NC(C)c2ccc(S(N)(=O)=O)cc2)cc1` (stereo not drawn) the figure was 34.1%; with `Cc1ccc(NC(C)C(=O)NCc2cccs2)cc1Cl` (stereo not drawn), 5.9%.
With `Cc1ccc(S(N)(=O)=O)cc1C(=O)NCC1Cc2ccccc2O1` (stereo not drawn), the cytotoxicity at 70.5 h is -3.82%.
For the compound `CS(=O)(=O)Cc1ccc(C(=O)NCC2Cc3ccccc3O2)cc1` (stereo not drawn), the cytotoxicity at 70.5 h was -0.3%.
With `Cc1nccn1-c1cc(CNC(=O)N2CCSCC2)ccn1` the figure was -3.48%.
With `Cc1nccn1-c1cc(CNC(=O)CCNC(=O)OC(C)(C)C)ccn1`, the cytotoxicity at 70.5 h was -7.58%.
With `CS(=O)(=O)c1cccc(C(=O)NCC2Cc3ccccc3O2)c1` (stereo not drawn) the figure was -5.79%.
`Cc1cc(C)c(S(N)(=O)=O)cc1C(=O)NCC1Cc2ccccc2O1` (stereo not drawn): the cytotoxicity at 70.5 h is -5.64%.
In the case of `CC(Oc1ccccc1C(F)(F)F)C(=O)NCC(=O)N1CCCC1` (stereo not drawn), the cytotoxicity at 70.5 h is -6.07%.
For `COC(=O)CNC(=O)C(C)Oc1ccccc1C(F)(F)F` (stereo not drawn), the cytotoxicity at 70.5 h was -3.31%.
Regarding `Cc1cc(C(=O)N2CCCN(Cc3cnn(C(C)C)c3)CC2)no1`, the cytotoxicity at 70.5 h is -3%.
With `COc1ccsc1C(=O)N1CCCC1c1c(C)nn(C)c1OC` (stereo not drawn) the figure was -4.7%; with `O=C1CC(Cc2ccc(NC(=O)c3cccc(F)c3)cc2)C(=O)N1` (stereo not drawn), -3.69%.
With `CC1CN(C)c2ccccc2CN1C(=O)c1ccoc1` (stereo not drawn) the figure was 10%.
As to `Cc1ccoc1C(=O)NCCOc1ncc(Cl)cc1Cl`, the cytotoxicity at 70.5 h was -4.36%.
In the case of `CC1CN(C)c2ccccc2CN1C(=O)c1cc[nH]c(=O)c1` (stereo not drawn), the cytotoxicity at 70.5 h was -0.482%.
Consider `Cc1cc(C)n(CC2CN(CCc3ccncc3)CCO2)n1` (stereo not drawn), for which the cytotoxicity at 70.5 h is -2.71%.
Regarding `CC(C)n1cc(CN2CCCN(C(=O)c3ccnn3C)CC2)cn1`, the cytotoxicity at 70.5 h was -2.89%.
With `COCCOCCNC(=O)C(C)Oc1ccccc1C(F)(F)F` (stereo not drawn), the cytotoxicity at 70.5 h is -5.94%.
Next, `COC(=O)C(O)C1CCN(Cc2cccc(-n3cccn3)c2)CC1` (stereo not drawn): -1.06%; `O=C(c1cncc(Br)c1)N1CCCc2ccc(F)cc21`: -5.54%.
Regarding `Cc1cccc(N(CCC(N)=O)CC(=O)Nc2ccccc2)c1`, the cytotoxicity at 70.5 h was determined as 0.933%.
Next, `COCc1cccc(NC(=O)NCc2ncc(C)c(OC)c2C)c1`: 0.253%; `Cc1cc(NC(=O)CSc2nc(=O)ccn2C(C)C)no1`: -0.711%.
On to `O=C1C(NCc2ccccc2O)CCN1Cc1ccccc1` (stereo not drawn), for which the cytotoxicity at 70.5 h turned out to be 18.3%.
As for `O=C(c1cc[nH]n1)N(Cc1ccc(F)cc1)CC1CC1`, the cytotoxicity at 70.5 h is 0.0679%.
Next, `COCCNc1ccc(CNC(=O)C2COc3ccccc32)cc1` (stereo not drawn): 19.2%; `Cc1nccc(CNC(=O)NCC(C)Oc2ccccc2F)n1` (stereo not drawn): 10.9%; `CNC(=O)c1ccc(Cn2ccnc2S(C)(=O)=O)cc1`: -0.546%.
With `CCn1ccnc1S(=O)(=O)Cc1ccc(C(N)=O)cc1` the figure was -2.48%; with `CS(=O)(=O)c1nccn1Cc1ccc(Cl)cc1`, -5.04%.
With `CCS(=O)(=O)CC(=O)Nc1cccc2c1CN(CC(C)C)C2` the figure was -0.0392%; with `CN(C(=O)CCNC(=O)C1COc2ccccc21)c1ccccc1` (stereo not drawn), -6.34%.
Take `Cc1cc(C)n(CC(=O)NC2CCCCNC2=O)n1` (stereo not drawn): the cytotoxicity at 70.5 h was -6.78%.
As to `O=C1C(NCc2ccc3c(c2)CCO3)CCN1Cc1ccccc1` (stereo not drawn), the cytotoxicity at 70.5 h was -14.7%.
